This test concerns the target T1, Adenosine 5'-phosphosulfate reductase (Mycobacterium tuberculosis (strain CDC 1551 / Oshkosh), UniProt P9WIK2).
T1 sequence (P9WIK2 whole entry): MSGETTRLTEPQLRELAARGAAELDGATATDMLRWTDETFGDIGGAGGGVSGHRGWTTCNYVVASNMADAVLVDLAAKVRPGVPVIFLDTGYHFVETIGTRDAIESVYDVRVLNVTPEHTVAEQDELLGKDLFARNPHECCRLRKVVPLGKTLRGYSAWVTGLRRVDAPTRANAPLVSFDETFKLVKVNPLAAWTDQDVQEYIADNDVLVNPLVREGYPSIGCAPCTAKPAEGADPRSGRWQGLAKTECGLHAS
The test is described as follows: Determination of Dissociation Constant (Kd). Particulars: pH 7.5; 30 °C. How it is done:
Values of Ki were determined from the dependence of the observed rate constant (kobs) on inhibitor concentration. […] A range of inhibitor concentrations was employed from at least 5-fold below to 10-fold above the inhibition constant. Nonlinear least-squares fits of the equation for competitive inhibition gave excellent fits in all cases, and the standard error was typically less than 15%.

The Kd is a measure of binding affinity in units of concentration. Low values mean a tighter complex, high ones a looser complex.

Take `O=C(O)CSc1nnc2c3ccccc3c3ccccc3c2n1` [2-(1,2,4-triazatriphenylen-3-ylsulfanyl)acetic acid]: the affinity, expressed as Kd, was 46.8 µM.
For the compound `CC(=O)[C@H]1CC[C@@H]2[C@]1(C)CC=C1[C@]23C=C[C@]2(C[C@@H](O)CC[C@]12C)C(C(=O)O)C3C(=O)O` (stereo partly drawn) [(1R,2R,5S,6S,10S,13S,15R)-5-acetyl-13-hydroxy-6,10-dimethylpentacyclo[13.2.2.0^{1,9}.0^{2,6}.0^{10,15}]nonadeca-8,18-diene-16,17-dicarboxylic acid], binding was put at a Kd of 127 µM. This Kd is about 2.7-fold higher than that of the compound before.

The record behind these values is BindingDB's records for doi:10.1021/jm800571m (The Scripps Research Institute, 2008).
